Data taken from ChEMBL document CHEMBL1201862, “PubChem BioAssay data set” (2004).
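Compound exposure: 48 hours, 5 concentrations, 96-well plates. The concentration for 50% growth inhibition is given as GI50.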 The source made the active and inactive calls. No stated cut-off is given here; in the data, active = GI50 up to about 1.1 µM and inactive = higher.

Key:
Assay in all cases: growth of human tumour cells (NCI), 48 h
SNB-19 = test system: SNB-19
CCRF-CEM = test system: CCRF-CEM
HOP-92 = test system: HOP-92
MCF7 = test system: MCF7
786-0 = test system: 786-0
PC-3 = test system: PC-3
HCT-15 = test system: HCT-15
K562 = test system: K562
HCT-116 = test system: HCT-116
ACHN = test system: ACHN
SN12C = test system: SN12C
SR = test system: SR
SF-295 = test system: SF-295
NCI-H226 = test system: NCI-H226
MDA-MB-231 = test system: MDA-MB-231
DU-145 = test system: DU-145
MDA-N = test system: MDA-N
COLO 205 = test system: COLO 205
UACC-257 = test system: UACC-257
HL-60 = test system: HL-60
HCC 2998 = test system: HCC 2998
NCI-H522 = test system: NCI-H522
SW-620 = test system: SW-620
LOX IMVI = test system: LOX IMVI
OVCAR-3 = test system: OVCAR-3
SK-MEL-2 = test system: SK-MEL-2
MDA-MB-435 = test system: MDA-MB-435
NCI-H460 = test system: NCI-H460
A498 = test system: A498
OVCAR-5 = test system: OVCAR-5
SF-268 = test system: SF-268
BT-549 = test system: BT-549
Malme-3M = test system: Malme-3M
RPMI-8226 = test system: RPMI-8226
SK-MEL-28 = test system: SK-MEL-28
M14 = test system: M14
U-251 = test system: U-251
HT-29 = test system: HT-29
OVCAR-8 = test system: OVCAR-8
OVCAR-4 = test system: OVCAR-4
KM12 = test system: KM12
UACC-62 = test system: UACC-62
SF-539 = test system: SF-539
MOLT-4 = test system: MOLT-4
T47D = test system: T47D
NCI/ADR-RES = test system: NCI/ADR-RES
CAKI-1 = test system: CAKI-1
TK-10 = test system: TK-10
SK-OV-3 = test system: SK-OV-3
SK-MEL-5 = test system: SK-MEL-5
UO-31 = test system: UO-31
A549 = test system: A549
SNB-75 = test system: SNB-75
Hs-578T = test system: Hs-578T
EKVX = test system: EKVX
IGROV-1 = test system: IGROV-1
NCI-H23 = test system: NCI-H23
HOP-62 = test system: HOP-62
RXF 393 = test system: RXF 393

In the case of `C/C(=N\Nc1nc2ccccc2o1)c1ncccn1`, the GI50 (SNB-19) is reported as 163 nM (active), the GI50 (CCRF-CEM) is reported as < 10 nM (active) and the GI50 (HOP-92) is reported as 145 nM (active). The GI50 (MCF7) was 12.1 nM (active), the GI50 (786-0) was < 25.2 nM (active) and the GI50 (PC-3) was < 27.3 nM (active). For the same compound, the GI50 (HCT-15) was under 21.1 nM, the GI50 (K562) was 12 nM (active) and the GI50 (HCT-116) was < 17.5 nM (active). The GI50 (ACHN) was < 16.5 nM (active), the GI50 (SN12C) was < 15.8 nM (active) and the GI50 (SR) was < 20 nM (active). The GI50 (SF-295) was 82.4 nM (active), the GI50 (NCI-H226) was 118 nM (active) and the GI50 (MDA-MB-231) was < 20.8 nM (active). The GI50 (DU-145) was 81.1 nM (active), the GI50 (MDA-N) was 300 nM (active) and the GI50 (COLO 205) was < 10 nM (active). The GI50 (UACC-257) was < 22 nM (active), the GI50 (HL-60) was < 10 nM (active) and the GI50 (HCC 2998) was 141 nM (active). The GI50 (NCI-H522) was < 10 nM (active), the GI50 (SW-620) was < 10 nM (active) and the GI50 (LOX IMVI) was 11.5 nM (active). The GI50 (OVCAR-3) was 13.6 nM (active), the GI50 (SK-MEL-2) was 175 nM (active) and the GI50 (MDA-MB-435) was 57.3 nM (active). For the same compound, the GI50 (NCI-H460) was < 23.4 nM (active), the GI50 (A498) was 332 nM (active) and the GI50 (OVCAR-5) was < 26.7 nM (active). For the same compound, the GI50 (SF-268) was 320 nM (active), the GI50 (BT-549) was 643 nM (active) and the GI50 (Malme-3M) was < 10 nM (active). The GI50 (RPMI-8226) was 13.7 nM (active), the GI50 (SK-MEL-28) was 40.5 nM (active) and the GI50 (M14) was < 19.2 nM (active). For the same compound, the GI50 (U-251) was 21.3 nM (active), the GI50 (HT-29) was < 10 nM (active) and the GI50 (OVCAR-8) was < 10 nM (active). The GI50 (OVCAR-4) was < 10 nM (active), the GI50 (KM12) was 817 nM (active) and the GI50 (UACC-62) was 64.6 nM (active). The GI50 (SF-539) was 43 nM (active), the GI50 (MOLT-4) was < 10 nM (active) and the GI50 (T47D) was < 10 nM (active). The GI50 (NCI/ADR-RES) was < 16.3 nM (active), the GI50 (CAKI-1) was < 10 nM (active) and the GI50 (TK-10) was 67.5 nM (active). The GI50 (SK-OV-3) was 31.2 nM (active), the GI50 (SK-MEL-5) was 57.4 nM (active) and the GI50 (UO-31) was < 31.3 nM (active). For the same compound, the GI50 (A549) was 90.8 nM (active), the GI50 (SNB-75) was 1850 nM (inactive) and the GI50 (Hs-578T) was 984 nM (active). The GI50 (EKVX) was < 17.2 nM (active), the GI50 (IGROV-1) was 18.4 nM (active) and the GI50 (NCI-H23) was 123 nM (active). The GI50 (HOP-62) was 90.8 nM (active).
For `Cc1nn(C(=O)c2ccc(Cl)cc2)c2c1C(c1ccc(Cl)cc1)SC(=N)N2` (stereo not given), the GI50 (SNB-19) was > 10000 nM (inactive), the GI50 (CCRF-CEM) was > 10000 nM (inactive) and the GI50 (HOP-92) was > 10000 nM (inactive). The GI50 (MCF7) was > 10000 nM (inactive), the GI50 (786-0) was > 10000 nM (inactive) and the GI50 (PC-3) was > 10000 nM (inactive). The GI50 (HCT-15) was over 10000 nM, the GI50 (K562) was > 10000 nM (inactive) and the GI50 (HCT-116) was > 10000 nM (inactive). The GI50 (ACHN) was > 10000 nM (inactive), the GI50 (SN12C) was > 10000 nM (inactive) and the GI50 (SR) was > 10000 nM (inactive). The GI50 (SF-295) was > 10000 nM (inactive), the GI50 (NCI-H226) was > 10000 nM (inactive) and the GI50 (MDA-MB-231) was > 10000 nM (inactive). The GI50 (DU-145) was > 10000 nM (inactive), the GI50 (MDA-N) was > 10000 nM (inactive) and the GI50 (COLO 205) was > 10000 nM (inactive). The GI50 (UACC-257) was > 10000 nM (inactive), the GI50 (HL-60) was > 10000 nM (inactive) and the GI50 (HCC 2998) was > 10000 nM (inactive). For the same compound, the GI50 (NCI-H522) was > 10000 nM (inactive), the GI50 (SW-620) was > 10000 nM (inactive) and the GI50 (LOX IMVI) was > 10000 nM (inactive). The GI50 (OVCAR-3) was > 10000 nM (inactive), the GI50 (SK-MEL-2) was > 10000 nM (inactive) and the GI50 (MDA-MB-435) was > 10000 nM (inactive). The GI50 (NCI-H460) was > 10000 nM (inactive), the GI50 (OVCAR-5) was > 10000 nM (inactive) and the GI50 (SF-268) was > 10000 nM (inactive). The GI50 (BT-549) was > 10000 nM (inactive), the GI50 (Malme-3M) was > 10000 nM (inactive) and the GI50 (RPMI-8226) was > 10000 nM (inactive). The GI50 (SK-MEL-28) was > 10000 nM (inactive), the GI50 (M14) was > 10000 nM (inactive) and the GI50 (U-251) was > 10000 nM (inactive). The GI50 (HT-29) was > 10000 nM (inactive), the GI50 (OVCAR-8) was > 10000 nM (inactive) and the GI50 (OVCAR-4) was > 10000 nM (inactive). For the same compound, the GI50 (KM12) was > 10000 nM (inactive), the GI50 (UACC-62) was > 10000 nM (inactive) and the GI50 (SF-539) was > 10000 nM (inactive). The GI50 (MOLT-4) was > 10000 nM (inactive), the GI50 (T47D) was > 10000 nM (inactive) and the GI50 (RXF 393) was > 10000 nM (inactive). For the same compound, the GI50 (NCI/ADR-RES) was > 10000 nM (inactive), the GI50 (CAKI-1) was > 10000 nM (inactive) and the GI50 (TK-10) was > 10000 nM (inactive). For the same compound, the GI50 (SK-OV-3) was > 10000 nM (inactive), the GI50 (SK-MEL-5) was > 10000 nM (inactive) and the GI50 (A549) was > 10000 nM (inactive). The GI50 (SNB-75) was > 10000 nM (inactive), the GI50 (Hs-578T) was > 10000 nM (inactive) and the GI50 (EKVX) was > 10000 nM (inactive). For the same compound, the GI50 (IGROV-1) was > 10000 nM (inactive), the GI50 (NCI-H23) was > 10000 nM (inactive) and the GI50 (HOP-62) was > 10000 nM (inactive).
